The text below walks through data of US20140186872A1, “BISACODYL AND ITS ANALOGUES AS DRUGS FOR USE IN THE TREATMENT OF CANCER” (CENTRE NATIONAL DE LA RECHERCHE SCIENTIFIQUE- CNRS, priority 2011, published 2014).

Counter-ions that a name gives are not always drawn.

The test system of series [1] is quiescent TG1 glioblastoma stem cells. The series can be described thus: ATP-Glo (Cell Titer Glo) cell viability, dose/response, quiescent TG1 cells. Format: cell-based, human. The note with it: 24 h; for EC50: Homo sapiens, Glioblastoma stem cell, TG1-A Q, experimental protocol of Example 12, ATP-Glo, read-out: EC50 Quiescent TG1; for effect on survival of quiescent TG1 cells (words): own conditioned medium. The procedure: The TG1 cells were put into quiescence by keeping the cells in culture without changing the medium from 9 to 16 days. The state of quiescence was verified by non-incorporation of nucleotides into the DNA of the cells (see example 9).
The quiescent cells were put back in 1 mL of conditioned medium, dissociated mechanically by pipetting up and down 100 times with a P1000 micropipette preset to 400 μl and counted with Trypan Blue, after dilution in conditioned medium, to obtain a final suspension of 8.10^5 cells/mL.
(§1) 50 μl of solution containing cells was deposited per well in a 96-well plate (Greiner #655090).
(§2) The test compounds, in solution of 100% of DMSO were diluted in culture medium: in the absence of DMSO (medium 0% DMSO) or in the presence of 2% of DMSO (medium 2% DMSO) at concentrations of 200 μM, 100 μM, 80 μM, 60 μM, 40 μM, 20 μM, 10 μM and 2 μM. For all these dilutions the final concentration in DMSO was 2% (see Table 1 below; volumes shown make it possible to construct dose/response curves, in triplicate, for 1 compound on a 96-well plate—FIG. 1)
50 μL of solution of compound was added at the concentrations specified above to 50 μL of cells in the plate (FIG. 1) (Final concentration of compounds in contact with the cells: 100 μM, 50 μM, 40 μM, 30 μM, 20 μM, 10 μM, 5 μM, 1 μM (in 1% of final DMSO). Final concentration of positive control: 50 μM in 1% of final DMSO. Final concentration of negative control: 1% final DMSO).
The cells were incubated for 23 to 24 hours at 37° C. in an incubator in the presence of 5% CO2 (under humid atmosphere at 95% provided by a reservoir filled with distilled water).
(§3) The test of cell viability was carried out using the Cell Titer Glo kit (Promega #G7571). After thawing of the Cell Titer Glo reagent (1 Buffer vial+1 Substrate vial per plate) protected from the light, the contents of the Buffer vial were transferred to the Substrate vial. 100 μl of Cell Titer Glo reagent was deposited on the cells treated with the compounds.
(§4) The results, which were given for each well in strokes per second (sps), were converted to percentage cell survival relative to the control 1% of DMSO, which was fixed at 100%.
(§5) The EC50 was determined as the concentration that gives 50% of the response.
(§6) Glioblastoma (WHO grade IV glioma) stem cells (TG1, TG16 and OB1) were derived from tumor samples of 3 patients at Sainte Anne Hospital (Paris, France), as previously described (48) and expanded as neurosphere cultures. In continuously proliferating cultures, neurospheres were mechanically dissociated into a single-cell suspension twice a week with 90% renewal of their culture medium. Quiescent glioblastoma stem cells were obtained by non-renewal of the culture medium for 9-16 days following cell seeding. The non-proliferating state was assessed by decreased ability of the cells to incorporate EdU (5-ethynyl-2′-deoxyuridine) using the Click-iT™ EdU Flow Cytometry Assay Kit (Invitrogen, France) according to the manufacturer's instructions. […]
(§7) Confirmed hit compounds from the primary and secondary screens were purchased from Prestwick Chemical and dissolved in DMSO to obtain 10 mM concentrated stock solutions. Hit compound validation was obtained through dose-response curves on the viability of TG1 glioblastoma stem cells under the same experimental conditions (cell density, treatment duration) as described for the primary and secondary screens. Each compound was tested in triplicate in at least three independent experiments on proliferating and quiescent glioblastoma stem TG1 cells.
(§8) The EC50 value was determined for each compound by fitting the data points according to the following equation: […]
(§9) where y represents the expected response (expressed as a percentage of cell viability), x is the chemical compound concentration, Smax and Smin are the maximum and minimum viability responses recorded, respectively, and n is the Hill coefficient. Curve fitting was performed using the Microsoft Excel Solver component.

The test system of series [2] is proliferating TG1 glioblastoma stem cells. Put plainly: ATP-Glo (Cell Titer Glo) cell viability, dose/response, proliferating TG1 cells. The note with it: for EC50: Homo sapiens, Glioblastoma stem cell, TG1-A P, experimental protocol of Example 12, ATP-Glo; for EC50 / effect on survival of proliferating TG1 cells: 24 h; for effect on survival of proliferating TG1 cells: own culture medium. Format: cell-based, human. The method, then:
The TG1 proliferating cells correspond to cells for which medium is renewed regularly, twice weekly.
The proliferating cells were put back in 1 mL of fresh NS34 medium, dissociated mechanically by pipetting up and down 100 times with a P1000 micropipette preset to 400 μl and counted with Trypan Blue, after dilution in fresh NS34 medium, to obtain a final suspension of 6×10^5 cells/mL.
as §1, §2
50 μL of solution of compound was added at the concentrations specified above to 50 μL of cells in the plate (FIG. 1) (Final concentration of compounds in contact with the cells: 100 μM, 50 μM, 40 μM, 30 μM, 20 μM, 10 μM, 5 μM, 1 μM (in 1% of final DMSO). Final concentration of positive control: 50 μM in 1% of final DMSO. Final concentration of negative control: 1% final DMSO). […]
as §3, §4, §5, §6, §7, §8, §9

Series [3] has as its system human fetal neural stem cells (f-NSC cells). Put plainly: ATP-Glo cell viability on fetal neural stem cells. Format: cell-based.

Regarding `Oc1ccc(C(c2ccc(O)cc2)c2cccnc2)cc1`, the EC50 is 8 ± 3 µM in series [1] and greater than 100 µM in series [2].
For `Oc1ccc(C(c2ccncc2)c2ccc(O)cc2)cc1`, the half-maximal effective concentration (EC50) is 39 ± 2 µM in series [1] and greater than 100 µM in series [2].
The matching figures for `CC(=O)Oc1ccc(C(c2ccc(O)cc2)c2ccccn2)cc1` (stereo not shown): 1 ± 0.5 µM and greater than 100 µM.
Turning to `CC(=O)Oc1ccc(C(c2ccc(O[Si](C)(C)C(C)(C)C)cc2)c2ccccn2)cc1` (stereo not shown), the 50% effective concentration (EC50) in series [1] worked out at 12.1 ± 0.6 µM; in series [2] it was 12 ± 0.1 µM.
Turning to `CC(C)(C)[Si](C)(C)Oc1ccc(C(c2ccc(O)cc2)c2ccccn2)cc1` (stereo not shown), the EC50 worked out at 13 ± 3 µM in series [1] and 13 ± 5 µM in series [2].
For `COc1ccc(C(c2ccc(O)cc2)c2ccccn2)cc1` (stereo not shown), in that order: 8 ± 6 µM and greater than 100 µM.
For `C#CCOc1ccc(C(c2ccc(O)cc2)c2ccccn2)cc1` (stereo not shown), the results for the EC50 in series [1] and in series [2] were 3 ± 1 µM and 39 ± 6 µM, respectively.
On to `CCCC(C)Oc1ccc(C(c2ccc(O)cc2)c2ccccn2)cc1` (stereo not shown), for which the concentration for a half-maximal effect (EC50) was determined as 40 ± 10 µM in series [1] and 55 ± 8 µM in series [2].
Consider `CCCCCCCCCOc1ccc(C(c2ccc(OC(C)=O)cc2)c2ccccn2)cc1` (stereo not shown), for which the concentration giving a half-maximal response (EC50) in series [1] was 22 ± 2 µM; in series [2], 25.5 ± 0.6 µM.
With `CCCCCCCCCOc1ccc(C(c2ccc(O)cc2)c2ccccn2)cc1` (stereo not shown), the results for the EC50 in series [1] and in series [2] were 22 ± 3 µM and 25 ± 4 µM, respectively.
Regarding `c1ccc(C(c2ccccc2)c2ccccn2)cc1`, the EC50 was 81.9 µM in series [1] and greater than 100 µM in series [2].
As for `Nc1ncccc1C(c1ccc(O)cc1)c1ccc(O)cc1`, the 50% effective concentration (EC50) was 32 ± 2 µM in series [1] and greater than 100 µM in series [2].
For the compound `Clc1ccc(C(c2ccc(Cl)cc2)c2ccccn2)cc1`, the EC50 in series [1] worked out at 35.5 ± 4.5 µM; in series [2], 34 ± 3 µM.
The matching figures for `Oc1ccc(C(c2ccccc2)c2ccc(O)cc2)cc1`: 14.2 ± 8.8 µM and 60.8 ± 10.4 µM.
Consider `Oc1ccc(C(c2ccccn2)c2ccccc2O)cc1` (stereo not shown), for which the concentration giving a half-maximal response (EC50) is 57.6 ± 0.7 µM in series [1] and greater than 100 µM in series [2].
On to `Oc1ccc(C(c2ccccc2)c2ccccn2)cc1` (stereo not shown), for which the concentration for a half-maximal effect (EC50) was 17.1 ± 6.3 µM in series [1] and greater than 100 µM in series [2].
The matching figures for `Oc1ccc(C(c2ccc(Cl)cc2)c2ccccn2)cc1` (stereo not shown): 4 ± 1.4 µM and greater than 100 µM.
As to `Oc1ccc(C(c2ccc(O)cc2)c2cncc(Br)c2)cc1`, the concentration for a half-maximal effect (EC50) in series [1] is 5 µM; in series [2], greater than 100 µM.
On to `Oc1ccc(C(c2ccc(C(F)(F)F)cc2)c2ccccn2)cc1` (stereo not shown), for which the concentration for a half-maximal effect (EC50) was 17.3 µM in series [1] and greater than 100 µM in series [2].
As for `CC(=O)Oc1ccc(C(c2ccc(O)cc2)c2ccccn2)cc1` (racemic) [Compound 3, 4-((4-Hydroxyphenyl)(pyridin-2-yl)methyl)phenyl acetate], the “effect on survival / toxicity, f-NSC cells” value (shortened to “effect on survival / toxicity”) in series [3] is “little or no effect”. Besides, the “effect on survival of quiescent TG1 cells (words)” value (shortened to “effect on survival … (words)”) in series [1] is “effect similar to that described for bisacodyl”.
Take `COc1ccc(C(c2ccc(O)cc2)c2ccccn2)cc1` (racemic) [Compound 6, 4-((4-Methoxyphenyl)(pyridin-2-yl)methyl)phenol]: in series [3], the “effect on survival / toxicity” value is recorded as “little or no effect”. The “effect on survival … (words)” value in series [1] is recorded as “effect similar to that described for bisacodyl”.
Consider `C#CCOc1ccc(C(c2ccc(O)cc2)c2ccccn2)cc1` (racemic) [Compound 9, 4-((4-(Prop-2-yn-1-yloxy)phenyl)(pyridin-2-yl)methyl)phenol], for which the “concentration from which a large decrease in survival of NSC cells occurs” value in series [3] was no less than 40 µM. In addition, the “effect on survival … (words)” value in series [1] was “active on the quiescent cells”. Moreover, in series [2], the “effect on survival of proliferating TG1 cells” value is reported as “also on the proliferating cells”. Also, the “concentrations causing a considerable decrease in survival of proliferating cells” value in series [2] (proliferating TG1 cells) is recorded as “above 40 μM”.
On to `O=C(Oc1ccc(C(c2ccc(OC(=O)C(F)(F)F)cc2)c2ccccn2)cc1)C(F)(F)F` [Compound 5, (Pyridin-2-ylmethylene)bis(4,1-phenylene)bis(2,2,2-trifluoroacetate)], for which, in series [3], the “effect on survival / toxicity” value was “little or no effect”. In addition, in series [1], the “effect on survival … (words)” value is “effect similar to that described for bisacodyl”.
For `COc1ccc(C(c2ccc(OC(C)=O)cc2)c2ccccn2)cc1` (stereo not shown) [Compound 7, 4-((4-Methoxyphenyl)(pyridin-2-yl)methyl)phenyl acetate], the “effect on survival / toxicity” value in series [3] is “little or no effect”. Moreover, the “effect on survival … (words)” value in series [1] was “effect similar to that described for bisacodyl”.
`CCCCCCCCNC(C)C(O)c1ccc(SC(C)C)cc1` (stereo not shown) [Suloctidil, reference compound]: the “effect on survival … (words)” value in series [1] is reported as “overlapping cytotoxic activity”. The “effect on survival of proliferating TG1 cells” value in series [2] is reported as “overlapping cytotoxic activity”.
Take `OCCN1CCN(CC/C=C2/c3ccccc3Sc3ccc(Cl)cc32)CC1` [Zuclopenthixol HCl, reference compound]: the “effect on survival of proliferating TG1 cells” value in series [2] is recorded as “more selective effects”.
For `CC(=O)Oc1ccc(C(c2ccc(OC(C)=O)cc2)c2ccccn2)cc1` [drawing 51], the EC50 in series [1] is 1.6 ± 0.3 µM; in series [2], greater than 100 µM.
Regarding `Oc1ccc(C(c2ccc(O)cc2)c2ccccn2)cc1` [drawing 52], the figures for the EC50 in series [1] and in series [2] were 1 ± 0.5 µM and greater than 100 µM, respectively.
For `O=C(Oc1ccc(C(c2ccc(OC(=O)C(F)(F)F)cc2)c2ccccn2)cc1)C(F)(F)F` [drawing 57], in that order: 2 ± 1 µM and greater than 100 µM.
Turning to `COc1ccc(C(c2ccc(OC(C)=O)cc2)c2ccccn2)cc1` (stereo not shown) [drawing 60], the EC50 in series [1] was 9 ± 4 µM; in series [2], greater than 100 µM.
